Assay results reported in patent publication US11318108B2, “Use of carotenoid derivatives to reduce the toxicity and increase the efficacy of anti-EGFR antitumor treatments” (ASSOCIAZIONE ONCOLOGICA MILANESE AMO LA VITA ONLUS, priority 2017, dated 2022).

Assays:
[1] = tested on: cutaneous and/or mucosal toxicity induced by anti-EGFR drugs; experiment: administration of lycopene to patients treated with anti-EGFR drugs; assay type: in vivo
Text: The regression has been so significant that patients, who could not shave the beard before the treatment with lycopene, could perform normal shaving after 2 weeks from the daily administration of lycopene.

[2] = cited from earlier work
[3] = patients affected by paronychia due to anti-EGFR drugs
[4] = dosage of treatment group A (6.5 mg tablets, 3 tablets/day)

CC(C)=CCC/C(C)=C/C=C/C(C)=C/C=C/C(C)=C/C=C/C=C(C)/C=C/C=C(C)/C=C/C=C(\C)CCC=C(C)C [lycopene]
regression of pustular injuries ([1]; male patients of age between 35 and 55 years treated with anti-EGFR drugs, already presenting pustular injuries): significant regression
time from daily administration until normal shaving possible ([1]; male patients who could not shave the beard before treatment, daily administration): 2 weeks
functional ability of hand fingers [1, 3]: recover the lost functional ability
nail growth and strength [1, 3]: recover the normal nail growth and strength
pain condition in paronychia [1, 3]: improvement of the pain condition
inflammation of paronychia ([1]; patients affected by paronychia due to anti-EGFR drugs with functional disabling of the hand fingers): resolution of the inflammation
regression of the rosiness (diffuse erythema of the face) ([1]; patients treated with anti-EGFR drugs): significant regression of the rosiness
onset/extension of rosiness coloration ([1]; some patients not yet affected by erythema): delayed and/or decreased the extension of such coloration
side effects during chronic intake ([2]; chronic intake, several studies): absence of relevant side effects
observed safe level of intake (OSL) ([2]; chronic intake): up to 75 mg/day
antioxidant effects at the trial dosage [2, 4]: significant antioxidant effects
side effects at the trial dosage [2, 4]: not to have relevant side effects
